# Legend:
# [1] = molecular target: D(1A) dopamine receptor (Bos taurus, UniProt Q95136)
# [2] = molecular target: T1, D(4) dopamine receptor (Homo sapiens, UniProt P21917)
# T1 sequence (P21917 whole entry): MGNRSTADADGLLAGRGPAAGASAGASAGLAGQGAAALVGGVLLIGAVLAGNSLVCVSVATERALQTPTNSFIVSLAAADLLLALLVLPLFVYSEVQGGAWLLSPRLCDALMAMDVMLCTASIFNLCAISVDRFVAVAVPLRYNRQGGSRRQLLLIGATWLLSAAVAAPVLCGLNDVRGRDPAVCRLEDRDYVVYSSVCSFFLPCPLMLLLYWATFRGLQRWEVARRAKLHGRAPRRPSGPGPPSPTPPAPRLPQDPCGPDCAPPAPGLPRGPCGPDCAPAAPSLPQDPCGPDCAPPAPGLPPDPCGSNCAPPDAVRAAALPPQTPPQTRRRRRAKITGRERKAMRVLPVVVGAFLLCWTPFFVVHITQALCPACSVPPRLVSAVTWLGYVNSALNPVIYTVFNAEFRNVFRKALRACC
# [3] = molecular target: T2, D(2) dopamine receptor (Homo sapiens, UniProt P14416); test: biochemical
# T2 sequence (P14416 whole entry): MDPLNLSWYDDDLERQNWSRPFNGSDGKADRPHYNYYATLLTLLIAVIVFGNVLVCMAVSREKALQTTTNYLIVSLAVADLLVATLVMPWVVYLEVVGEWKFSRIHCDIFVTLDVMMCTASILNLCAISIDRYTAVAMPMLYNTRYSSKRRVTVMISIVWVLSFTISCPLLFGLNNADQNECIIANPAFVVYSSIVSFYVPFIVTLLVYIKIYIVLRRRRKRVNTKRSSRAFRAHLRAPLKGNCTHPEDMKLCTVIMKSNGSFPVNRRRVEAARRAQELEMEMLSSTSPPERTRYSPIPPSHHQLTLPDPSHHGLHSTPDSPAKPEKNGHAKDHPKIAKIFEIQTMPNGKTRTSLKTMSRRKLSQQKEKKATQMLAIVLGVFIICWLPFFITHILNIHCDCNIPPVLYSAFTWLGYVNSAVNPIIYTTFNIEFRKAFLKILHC
# [4] = molecular target: T3, D(3) dopamine receptor (Homo sapiens, UniProt P35462); test: biochemical
# T3 sequence (P35462 whole entry): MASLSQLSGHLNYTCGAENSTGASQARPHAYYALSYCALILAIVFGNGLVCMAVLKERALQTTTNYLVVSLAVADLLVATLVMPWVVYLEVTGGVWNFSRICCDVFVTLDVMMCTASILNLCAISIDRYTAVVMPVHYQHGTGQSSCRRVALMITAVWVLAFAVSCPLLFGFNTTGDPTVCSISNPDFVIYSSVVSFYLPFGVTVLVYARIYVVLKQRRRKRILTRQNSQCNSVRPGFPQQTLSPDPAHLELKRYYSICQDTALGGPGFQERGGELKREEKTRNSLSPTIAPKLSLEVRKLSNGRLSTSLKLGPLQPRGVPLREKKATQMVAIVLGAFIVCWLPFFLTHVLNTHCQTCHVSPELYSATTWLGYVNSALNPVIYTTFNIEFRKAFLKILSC
# [5] = molecular target: T2, D(2) dopamine receptor; test: biochemical; remark: listed apart in the source
# [6] = molecular target: T3, D(3) dopamine receptor; conditions: cho
# [7] = molecular target: T2, D(2) dopamine receptor; test: Ability to displace [3H]spiperone [0.5 nM (Kd=0.2-0.45 nM)] from human cloned dopamine receptor D2S expressed in CHO cells at 0.5 nM concentration; type: cell-based
# D(1A) dopamine receptor, sequence (Q95136 whole entry): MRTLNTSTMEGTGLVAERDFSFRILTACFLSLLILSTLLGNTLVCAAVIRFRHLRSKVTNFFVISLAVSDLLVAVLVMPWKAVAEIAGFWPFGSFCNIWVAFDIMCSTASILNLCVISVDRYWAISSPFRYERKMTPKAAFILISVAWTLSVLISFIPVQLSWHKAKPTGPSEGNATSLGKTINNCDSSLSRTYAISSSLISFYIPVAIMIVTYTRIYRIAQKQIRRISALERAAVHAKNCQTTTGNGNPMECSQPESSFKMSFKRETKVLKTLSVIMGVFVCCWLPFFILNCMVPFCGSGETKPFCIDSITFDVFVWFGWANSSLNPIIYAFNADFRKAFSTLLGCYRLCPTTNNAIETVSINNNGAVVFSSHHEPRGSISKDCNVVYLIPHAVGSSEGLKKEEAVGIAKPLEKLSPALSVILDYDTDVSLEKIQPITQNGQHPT
Ki [1],Ki [2],Ki [3],Ki [4],Ki [5],Ki [6],Ki [7],Compound
6800 nM,8.3 nM,24 nM,160 nM,15 nM,,,CNc1cc(OC)c(C(=O)NC2CCN(Cc3ccccc3)CC2)cc1Cl
3300 nM,1500 nM,7700 nM,,5500 nM,1000 nM,,COc1c(C(=O)N[C@@H]2CCN(Cc3ccccc3)C2)cc(C#Cc2ccccc2)c2ccccc12 (stereo in doubt)
4400 nM,1.6 nM,8 nM,13 nM,6.4 nM,,,CNc1cc(OC)c(C(=O)N[C@H]2CCN(Cc3ccccc3)C[C@@H]2C)cc1Cl (stereo in doubt)
5300 nM,4.3 nM,15 nM,27 nM,11 nM,,,CNc1cc(OC)c(C(=O)N[C@H]2CN(Cc3ccccc3)C[C@@H]2C)cc1Cl (stereo in doubt)
13000 nM,530 nM,7900 nM,8700 nM,4200 nM,,,COc1cc(N)c(Cl)cc1C(=O)N[C@H]1CCCN(Cc2ccccc2)C1 (stereo in doubt)
6100 nM,7 nM,500 nM,79 nM,250 nM,,,C#Cc1cc(C(=O)N[C@@H]2CCN(Cc3ccccc3)C2)c(OC)c2ccccc12 (stereo in doubt)
2100 nM,610 nM,2500 nM,1000 nM,2800 nM,,,COc1c(C(=O)NCC[C@@H]2CCN(Cc3ccccc3)C2)cc(Br)c2ccccc12 (stereo in doubt)
7400 nM,21 nM,150 nM,84 nM,150 nM,,,COc1c(C(=O)N[C@@H]2CCN(Cc3ccccc3)C2)cc(Br)c2ccccc12 (stereo in doubt)
4000 nM,27 nM,290 nM,130 nM,,,170 nM,COc1c(C(=O)N[C@H]2CN(Cc3ccccc3)C[C@H]2C)cc(Br)c2ccccc12 (stereo in doubt)
7100 nM,7.4 nM,8.6 nM,20 nM,7.4 nM,,,COc1cc(N)c(Cl)cc1C(=O)N[C@H]1CCN(Cc2ccccc2)C[C@@H]1C (stereo in doubt)
6100 nM,3.3 nM,190 nM,33 nM,70 nM,,,COc1c(C(=O)N[C@@H]2CCN(Cc3ccccc3)C2)cc(I)c2ccccc12 (stereo in doubt)
2900 nM,78 nM,1300 nM,1000 nM,870 nM,,,COc1c(C(=O)NC[C@@H]2CCN(Cc3ccccc3)C2)cc(Br)c2ccccc12 (stereo in doubt)
4700 nM,0.84 nM,2.3 nM,1.8 nM,2 nM,,,CNc1cc(OC)c(C(=O)N[C@H]2CN(Cc3ccccc3)C[C@H]2C)cc1Cl (stereo in doubt)
4200 nM,59 nM,490 nM,140 nM,260 nM,,,COc1c(C(=O)N[C@H]2CN(Cc3ccccc3)C[C@@H]2C)cc(Br)c2ccccc12 (stereo in doubt)
5600 nM,64 nM,250 nM,1500 nM,210 nM,,,CNc1cc(OC)c(C(=O)N[C@H]2CCCN(Cc3ccccc3)C2)cc1Cl (stereo in doubt)
19000 nM,35 nM,470 nM,2200 nM,340 nM,,,COc1cc(N)c(Cl)cc1C(=O)N[C@H]1CCN(Cc2ccccc2)C[C@@H]1C (stereo in doubt; 3a)
8200 nM,4.7 nM,54 nM,510 nM,39 nM,,,CNc1cc(OC)c(C(=O)N[C@H]2CCN(Cc3ccccc3)C[C@@H]2C)cc1Cl (stereo in doubt; 3b)
12000 nM,0.77 nM,21 nM,220 nM,19 nM,,,CNc1cc(OC)c(C(=O)N[C@H]2CN(Cc3ccccc3)C[C@@H]2C)cc1Cl (stereo in doubt; 3c)
8400 nM,17 nM,1000 nM,740 nM,700 nM,,,COc1c(C(=O)N[C@H]2CN(Cc3ccccc3)C[C@@H]2C)cc(Br)c2ccccc12 (stereo in doubt; 3d)
4100 nM,0.23 nM,3.7 nM,100 nM,3 nM,,,CNc1cc(OC)c(C(=O)N[C@H]2CN(Cc3ccccc3)C[C@H]2C)cc1Cl (stereo in doubt; 3e)
4700 nM,2.7 nM,200 nM,390 nM,135 nM,,,COc1c(C(=O)N[C@H]2CN(Cc3ccccc3)C[C@H]2C)cc(Br)c2ccccc12 (stereo in doubt; 3f)
7200 nM,5 nM,180 nM,250 nM,,,130 nM,COc1c(C(=O)N[C@@H]2CCN(Cc3ccccc3)C2)cc(Br)c2ccccc12 (stereo in doubt; 3g)
3000 nM,1.2 nM,60 nM,34 nM,23 nM,,,COc1c(C(=O)N[C@@H]2CCN(Cc3ccccc3)C2)cc(I)c2ccccc12 (stereo in doubt; 3h)
3300 nM,2.5 nM,190 nM,86 nM,82 nM,,,C#Cc1cc(C(=O)N[C@@H]2CCN(Cc3ccccc3)C2)c(OC)c2ccccc12 (stereo in doubt; 3i)
2800 nM,500 nM,6400 nM,1000 nM,4000 nM,,,COc1c(C(=O)N[C@@H]2CCN(Cc3ccccc3)C2)cc(C#Cc2ccccc2)c2ccccc12 (stereo in doubt; 3j)
2100 nM,130 nM,640 nM,410 nM,420 nM,,,COc1c(C(=O)NC[C@@H]2CCN(Cc3ccccc3)C2)cc(Br)c2ccccc12 (stereo in doubt; 3k)
1700 nM,500 nM,2000 nM,580 nM,1900 nM,,,COc1c(C(=O)NCC[C@@H]2CCN(Cc3ccccc3)C2)cc(Br)c2ccccc12 (stereo in doubt; 3l)
17000 nM,200 nM,1600 nM,2900 nM,1100 nM,,,COc1cc(N)c(Cl)cc1C(=O)N[C@H]1CCCN(Cc2ccccc2)C1 (stereo in doubt; 5a)
10000 nM,25 nM,170 nM,560 nM,130 nM,,,CNc1cc(OC)c(C(=O)N[C@H]2CCCN(Cc3ccccc3)C2)cc1Cl (stereo in doubt; 5b)
